Tests used:
[1] = system: multiple myeloma cells U266B1; experiment: In-vivo assay II: subcutaneous xenograft model of multiple myeloma cells U266B1 in mice; details: NOG mice
Method: Evaluation assay of LMP7 Inhibitors in a subcutaneous xenograft model of multiple myeloma cells U266B1 in mice
Female NOG mice, week old: 6-8 weeks old, certificate No: SCXK(Jing) 2021-0006, purchased from Beijing Vital River Experimental Animal Technology Co. Ltd.
(§1) The specific method was that mice were housed in an SPF environment. Every 5 mice were housed in 1 cage. Animals were free to drink and eat and were adaptively raised for one week. Laboratory conditions: room temperature 18-24° C., relative humidity 40%-70%, ventilated with a ventilation fan, natural light source for 12 hours per day. Cages, bedding, drinking water, and feed were replaced twice a week, and the replaced cages and drinking water bottles were cleaned and then sterilized by steam under high pressure. Cages, room walls, and floors were cleaned twice a week with 84-disinfectant or bromogeramine.
U266b1 (China Center for Type Culture Collection, College of Life Sciences at Wuhan University) cells were cultured using RPMI-1640 medium supplemented with 20% fetal bovine serum and 1% Penicillin-Streptomycin at 37° C. in an atmosphere of 5% CO2 in the air. Cells were routinely sub-cultured twice weekly, and cells grown in the exponential growth phase were harvested and counted. Cell suspensions were mixed well at 1:1 in Matrigel™ (Corning Matrigel™ Normal Basement Membrane) for tumor cell inoculation.
Each mouse was subcutaneously injected with 0.1 ml of PBS-suspended U266B1 cell suspension (containing 1.0×10^7 cells, 50% Matrigel) at the axillary sites on both sides to establish a subcutaneous transplanted tumor model of multiple myeloma cells U266B1 in mice. […] Tumor diameter and body weight were measured 3 times per week during the experiment. […]
The study endpoints were tumor growth inhibition, maximum tumor burden (individual tumor size equal to 10% of body weight), and weight loss greater than 20% of body weight at the start of treatment. The tumor volume was calculated as V=0.5×a×b^2, where V is the tumor volume and a and b are the length and width of the tumor, respectively. […]

[2] = system: multiple myeloma cells MM. 1S; experiment: In-vivo assay I: subcutaneous xenograft model of multiple myeloma cells MM. 1S in mice; details: MM. 1S xenograft, NOD/SCID mice; for animal death or weight loss caused by the compound: 2 mg/kg orally once daily for 14 days; for T/C / TGI (tumor growth inhibition rate): 2 mg/kg orally once daily, Day 14
Method: Evaluation assay of LMP7 inhibitors in a subcutaneous xenograft model of multiple myeloma cells MM. 1S in mice
Female NOD/SCID mice, week old: 5-6 weeks old, certificate No: SCXK(Jing) 2021-0006, purchased from Beijing Vital River Experimental Animal Technology Co. Ltd.
as §1
MM. 1S (Cell Resource Center, Institute of Basic Medical Sciences, Chinese Academy of Medical Sciences) cells were cultured using RPMI-1640 medium supplemented with 20% fetal bovine serum and 1% Penicillin-Streptomycin at 37° C. in an atmosphere of 5% CO2 in air. Cells were routinely sub-cultured twice weekly, and cells grown in the exponential growth phase were harvested and counted. Cell suspensions were mixed well in 30% Matrigel™ (Corning Matrigel™ High Concentration Basement Membrane) for tumor cell inoculation.
Mice were pretreated with cyclophosphamide via intraperitoneal injection for 3 days, and each mouse was subcutaneously injected with 0.1 mL of PBS-suspended MM. 1S cell suspension (containing 1.0×10^7 cells, 30% Matrigel) at the axillary sites on both sides to establish a subcutaneous transplanted tumor model of multiple myeloma cells MM. 1S in mice. When the tumor size reached 400-700 mm^3, the tumor mass was collected aseptically and cryopreserved for future use. The MM. 1S tumor mass was revived, and the tumor mass was aseptically collected for 2 generations for an in-vivo efficacy evaluation assay. When the average tumor volume was about 100-150 mm^3, 20 tumor-bearing mice with a relatively regular shape and uniform size were selected for the experiment. They were divided into 4 groups, with 5 animals in each group. The first group of the model group was orally administered with the vehicle once daily; the second group was orally administered with Example 9 (2 mg/kg) once daily; the third group was orally administered with Example 67 (2 mg/kg) once daily; the fourth group was orally administered Example 73 (2 mg/kg) once daily. Administration was started on the day of grouping and continued for 14 days. Tumor diameter and body weight were measured 3 times per week during the experiment. At the end of the experiment, intraocular canthus blood was collected and mice were sacrificed immediately after blood collection to collect tumor tissue.
The study endpoints were tumor growth inhibition, maximum tumor burden (individual tumor size equal to 10% of body weight), and weight loss greater than 20% of body weight at the start of treatment. The tumor volume was calculated as V=0.5×a×b^2, where V is the tumor volume and a and b are the length and width of the tumor, respectively. The tumor growth inhibition rate was calculated as TGI (%)=(1-(tumor volume of treatment group-tumor volume of treatment group at grouping)/(tumor volume of control group-tumor volume of control group at grouping))*100%. Complete tumor regression (CR) is defined as a tumor that is reduced to below the palpation limit (mm^3). Partial tumor regression (PR) is defined as a tumor that is reduced by at least half compared to the initial tumor volume. The minimum duration of CR or PR in three or more consecutive tumor measurements is required to consider CR or PR as persistent. […]

[3] = 0.3 mg/kg orally once daily, Day 14

SMILES	animal death or weight loss caused by the compound ([1]; 0.3 mg/kg orally once daily for 14 days)	T/C [1, 3] [%]	TGI (tumor growth inhibition rate) [1, 3] [%]	animal death or weight loss caused by the compound [2]	T/C [2] [%]	TGI (tumor growth inhibition rate) [2] [%]
O=C(Nc1cnccn1)C(=O)N[C@@H](Cc1coc2ccccc12)B(O)O [Ex. 9, (R)-(2-(benzofuran-3-yl)-1-(2-oxo-2-(pyrazin-2-ylamino)acetamido)ethyl) boronic acid]	no animal death or weight loss	9.76	104.45	no animal death or weight loss	0.88	112.28
CC1CC(C)(C)OB([C@H](Cc2coc3ccccc23)NC(=O)C(=O)Nc2cnccn2)O1 (stereo partly drawn) [Ex. 67]				no animal death or weight loss	1.57	112.06
O=C1COB([C@H](Cc2coc3ccccc23)NC(=O)C(=O)Nc2cnccn2)O1 [Ex. 73]				no animal death or weight loss	0.53	112.56
